In brackets after ≈: the same amount, converted by molar mass. Read-outs that look alike come from different tables or passages of the source.

A short description of data set [1]: Rat hepatocyte metabolic stability. It counts as in vitro ADME.
A short description of the next data set: Human blood stability. The format is in vitro ADME.
The nature of data set [2]: Kinetic solubility (PBS, pH 7.4). It counts as physicochemical. The following applies: for solubility kinetic: aqueous buffer, kinetic from dmso stock.
A further data set deals with 786-O. The experiment in a line: Cell proliferation (Alamar Blue) assay, 786-O. It counts as cell-based, human. The following applies: Homo sapiens, 786-0, 24 h. The procedure:
(§1) Cell viability assay was performed to assess the potency of the compounds in human cancer cell lines 786-0 (renal cell carcinoma) and SJSA-1 (osteosarcoma). Additional cell lines, such as pancreatic cancer cell lines (Panc 02.13, BxPC-3, Panc 12, Panc 02.03, Panc 6.03, PSN-1, HPAC, and Capan-1), prostate cancer cell lines (PC-3, DU145, 22Rv1, NCI-H660, BPH1, LNCaP, BM-1604, and MDA PCa 2b), etc., can be tested in a similar method.
(§2) Cells (SJSA-1, 786-0 and A431) were seeded (5000 cells/100 μL/well) in 96-well tissue culture plate and incubated at 37° C./5% CO2 for 16-24 hours. The cells were then treated with compounds (25 μL of 5×). The compound concentrations were 10-0.0005 μM prepared in 3-fold serial dilutions with final DMSO concentration of 1%. The plates were then incubated for 24 h at 37° C./5% CO2 in a moist environment. Then Alamar Blue™ reagent (final concentration 1×-12.5 μL) was added to each well and incubated for 1.5 hours at 37° C./5% CO2. The plates were read on fluorescence reader at 540 nm excitation and 590 nm emission wavelengths. The IC50 values were subsequently determined using a sigmoidal dose-response curve (variable slope) in GraphPad Prism® 5 software. Table A-3, Table B-3 and Table C-3 show cell proliferation data for certain compounds as described herein.

The nature of data set [3]: Human hepatocyte metabolic stability. The format is in vitro ADME.
A further data set concerns SJSA-1. Kind of data set: Cell proliferation (Alamar Blue) assay, SJSA-1. The format is cell-based, human. The following applies: Homo sapiens, SJSA-1, 24 h. How it is done: as §1, §2
In another data set the test system is A431. The experiment in a line: Cell proliferation (Alamar Blue) assay, A431. The format is cell-based, human. The settings on record: Homo sapiens, A-431, 24 h. The procedure: as §1, §2
The nature of data set [4]: CD-1 Mouse Whole Blood Stability Assay. The format is in vitro ADME. The following applies: Table B-6, incubation at 37° C.
A short description of data set [5]: Equilibrium solubility at different pHs and with SBECD. It counts as physicochemical. The settings on record: thermodynamic from solid.
The mark [6] stands for this setting: Table B-3, head prints SJSB-1, 24 h, read-out: IC50 (μM) SJSB-1.
Setting [7] is: aqueous buffer, pH 3.0 PBS buffer, read-out: Eq. solubility pH 3.0 PBS buffer.
[8] abbreviates: aqueous with cosolvent or surfactant or cyclodextrin, 20% SBECD (sulfobutyl ether cyclodextrin), read-out: Eq. solubility 20% SBECD.
Setting [9] is: Table C-3, SJSA-1 cells, 24 h, read-out: IC50 (μM) SJSA-1.

`C#CC(=O)N1[C@@H](CCCC)Cc2c([nH]c3ccccc23)[C@@H]1c1ccc(C(=O)NC2CCC2)nc1` [Compound B-5, 5-((1S,3S)-3-butyl-2-propioloyl-2,3,4,9-tetrahydro-1H-pyrido[3,4-b]indol-1-yl)-N-cyclobutylpicolinamide]: the “rat hepatocytes extr. Ratio” value in data set [1] was 0.9. Further, the “human blood stability % remaining” value is given as 36%_15 in “Human blood stability” (15 min); 41%_30 in “Human blood stability” (30 min); 11%_45 in “Human blood stability” (45 min); 9%_60 in “Human blood stability” (60 min); 0%_120 in the data set “Human blood stability” (120 min). Further, the solubility (kinetic) in data set [2] (Table B-4) was 1 µM (≈ 0.455 µg/mL). The IC50 in the data set with 786-O (Table B-3, 786-O cells) was determined as 0.002 µM; with SJSA-1 (setting [6]) it was 0.002 µM. The “human hepatocytes extr. Ratio” value in data set [3] came to 0.82.

In the case of `C#CC(=O)N1[C@@H](CCCC)Cc2c([nH]c3c(F)cc(F)cc23)[C@@H]1C1CCN(C(=O)OC)CC1` [Compound B-28], the IC50 with A431 (Table B-3, A431 cells) was found to be 8.1 µM; with 786-O (Table B-3, 786-O cells), 0.032 µM; with SJSA-1 (setting [6]), 0.06 µM. The “CD-1 Mouse Whole Blood Stability % Remaining” value in data set [4] (0 min) is 100.0%; in data set [4] (30 min), 9.6%; in [4] (60 min), 2.1%.

With `C#CC(=O)N1[C@@H](CCCC)Cc2c([nH]c3c(F)cc(F)cc23)[C@@H]1c1ccc(N2CCN(C(C)=O)CC2)c(C#N)c1` [Compound B-32], the solubility (kinetic) in data set [2] (Table B-7) was less than 1 µM. For the same compound, the solubility is less than 1 µg/mL in data set [5] (aqueous buffer, pH 3.0, read-out: Eq. solubility pH 3.0); less than 1 µg/mL in [5] (setting [7]); 9 to 18 µg/mL (≈ 16.6 to 33.1 µM) in data set [5] (setting [8]). The IC50 with 786-O (Table B-3, 786-O cells) came to 0.018 µM; in the data set with SJSA-1 (setting [6]), 0.029 µM.

In the case of `C#CC(=O)N1[C@@H](CCCC)Cc2c([nH]c3c(F)cc(F)cc23)[C@@H]1c1cnn(C)c1` [Compound B-33], the IC50 is more than 10 µM with A431 (Table B-3, A431 cells); 0.121 µM with 786-O (Table B-3, 786-O cells); 0.257 µM with SJSA-1 (setting [6]). In addition, the solubility was less than 1 µg/mL in [5] (setting [7]) and more than 1090 µg/mL in data set [5] (setting [8]).

With `C#CC(=O)N1[C@@H](CCCC)Cc2c([nH]c3c(F)cc(F)cc23)[C@@H]1c1ccc(NC(=O)OCC)cc1` [Compound B-35], the IC50 with A431 (Table B-3, A431 cells) was found to be 6.6 µM; in the data set with 786-O (Table B-3, 786-O cells), 0.01 µM; in the data set with SJSA-1 (setting [6]), 0.019 µM. For the same compound, the “rat hepatocytes extr. Ratio” value in data set [1] worked out at 0.78. In addition, the “rat hepatocytes % met @ 180 min” value in [1] (180 min) is recorded as 94%. The half-life amounted to 1.13 h in data set [1] (rat hepatocytes, read-out: rat hepatocytes T1/2) and 1.63 h in [3] (human hepatocytes, read-out: human hepatocytes T1/2). Besides, the hepatocyte CLint in [1] (rat hepatocytes, read-out: rat hepatocytes h Clintr (μL/min/10^6 cells)) stood at 41 µL/min/1e6 cells; in data set [3] (human hepatocytes, read-out: human hepatocytes h Clintr (μL/min/10^6 cells)) it was 28 µL/min/1e6 cells. For the same compound, the “human blood stability % remaining” value in the data set “Human blood stability” (15 min) is given as 107%_15; in “Human blood stability” (30 min) it was 31%_30; in the data set “Human blood stability” (45 min), 15%_45; in the data set “Human blood stability” (60 min), 8.4%_60; in “Human blood stability” (120 min), 0%_120. Besides, the “Kinetic solubility (PBS, pH 7.4, μM)” value in [2] (Table B-7) was less than 1 μM. The compound also registered a solubility (kinetic) in data set [2] (Table B-4) of less than 1 µM. Further, in data set [5] (setting [8]), the solubility is 10 µg/mL (≈ 20.9 µM). The “human hepatocytes extr. Ratio” value in [3] is reported as 0.8. The “human hepatocytes % met @ 180 min” value in data set [3] (180 min) was determined as 73%.

With `C#CC(=O)N1[C@@H](CCCC)Cc2c([nH]c3c(F)cc(F)cc23)[C@@H]1c1ccc(-c2nnn[nH]2)cc1` [Compound B-50], the “CD-1 Mouse Whole Blood Stability % Remaining” value in data set [4] (0 min) came out at 100%; in data set [4] (30 min) it was 22.3%; in data set [4] (60 min), 10.5%.

As to `C#CC(=O)N1[C@@H](CCCC)Cc2c([nH]c3c(F)cc(F)cc23)[C@@H]1c1ccc(C#N)nc1` [Compound B-51], the IC50 stood at 1.1 µM in the data set with A431 (Table B-3, A431 cells); 0.07 µM in the data set on 786-O (Table B-3, 786-O cells); 0.01 µM in the data set on SJSA-1 (setting [6]). In addition, the “CD-1 Mouse Whole Blood Stability % Remaining” value was 100% in [4] (0 min), 0% in data set [4] (30 min) and 0% in [4] (60 min).

On to `C#CC(=O)N1[C@@H](CCCC)Cc2c([nH]c3ccccc23)[C@@H]1C12CC3CC(CC(C3)C1)C2` [Compound B-94], for which the IC50 is more than 10 µM with A431 (Table B-3, A431 cells); 1.06 µM in the data set with 786-O (Table B-3, 786-O cells); 1.37 µM with SJSA-1 (setting [6]).

On to `C#CC(=O)N1C(CCCC)Cc2c([nH]c3ccccc23)[C@@H]1c1ccc(C(O)CO)cc1` (stereo partly shown) [Compound B-95], for which the IC50 is more than 10 µM in the data set on A431 (Table B-3, A431 cells); 0.32 µM in the data set with 786-O (Table B-3, 786-O cells); 0.74 µM in the data set with SJSA-1 (setting [6]).

For `C#CC(=O)N1[C@@H](CCCC)Cc2c(n(CC#N)c3c(F)cc(F)cc23)[C@@H]1c1ccc(NC(=O)OCCCCC)cc1` [Compound B-97], the IC50 in the data set with A431 (Table B-3, A431 cells) was 6.35 µM; in the data set on 786-O (Table B-3, 786-O cells), 0.071 µM; with SJSA-1 (setting [6]), 0.0455 µM.

As for `C#CC(=O)N1[C@@H](CCCC)Cc2c([nH]c3c(F)cc(F)cc23)[C@@H]1C1CCC2(CC1)OCCO2` [Compound B-99], the IC50 in the data set with A431 (Table B-3, A431 cells) was more than 10 µM; in the data set with 786-O (Table B-3, 786-O cells) it was 0.207 µM; with SJSA-1 (setting [6]) it was 0.504 µM.

In the case of `C#CC(=O)N1[C@@H](CCCC)Cc2c(sc3ccccc23)[C@@H]1c1ccc(NC(=O)OCCCCC)cc1` [Compound B-100], the IC50 was 7.84 µM in the data set with A431 (Table B-3, A431 cells); 0.0285 µM in the data set on 786-O (Table B-3, 786-O cells); 0.04 µM in the data set on SJSA-1 (setting [6]).

As to `C#CC(=O)N1[C@@H](CCCC)Cc2c([nH]c3c(F)cc(F)cc23)[C@@H]1CCC` [Compound C-3], the IC50 is more than 10 µM in the data set with A431 (Table C-3, A431 cells); 0.14 µM in the data set with 786-O (Table C-3, 786-O cells); 0.22 µM in the data set with SJSA-1 (setting [9]).

With `C#CC(=O)N1[C@@H](CCCC)Cc2c([nH]c3c(F)cc(F)cc23)[C@@H]1CCCC` [Compound C-4], the IC50 in the data set on A431 (Table C-3, A431 cells) stood at 4.4 µM; in the data set on 786-O (Table C-3, 786-O cells), 0.048 µM; in the data set with SJSA-1 (setting [9]) it was 0.045 µM.

For the compound `C#CC(=O)N1[C@@H](CCCC)Cc2c([nH]c3c(F)cc(F)cc23)[C@@H]1CC(C)C` [Compound C-5], the IC50 with A431 (Table C-3, A431 cells) was more than 10 µM; in the data set on 786-O (Table C-3, 786-O cells) it was 0.22 µM; in the data set with SJSA-1 (setting [9]), 0.22 µM.

Regarding `C#CC(=O)N1[C@@H](CCCC)Cc2c([nH]c3c(F)cc(F)cc23)[C@@H]1CCCCCCCCCCCCCCC` [Compound C-6], the IC50 is more than 10 µM with A431 (Table C-3, A431 cells); more than 10 µM in the data set on 786-O (Table C-3, 786-O cells); more than 10 µM with SJSA-1 (setting [9]).

Consider `C#CC(=O)N1[C@@H](CCCC)Cc2c([nH]c3c(F)cc(F)cc23)[C@@H]1COCCOC` [Compound C-7], for which the IC50 stood at 6.8 µM with A431 (Table C-3, A431 cells); 0.043 µM in the data set with 786-O (Table C-3, 786-O cells); 0.093 µM in the data set with SJSA-1 (setting [9]).

Regarding `C#CC(=O)N1[C@@H](CCCC)Cc2c([nH]c3ccccc23)[C@]1(C)c1ccc(F)cc1` [Compound C-11], the IC50 with A431 (Table C-3, A431 cells) was more than 10 µM; in the data set with 786-O (Table C-3, 786-O cells), 0.098 µM; in the data set with SJSA-1 (setting [9]), 0.22 µM.

With `CCCC[C@H]1Cc2c([nH]c3ccccc23)[C@](C)(c2ccc(F)cc2)N1C(=O)CCl` [Compound C-14], the IC50 in the data set with A431 (Table C-3, A431 cells) is more than 10 µM; with 786-O (Table C-3, 786-O cells) it was 0.017 µM; in the data set with SJSA-1 (setting [9]), 0.017 µM.

Consider `C#CC(=O)N1[C@@H](CCCC)Cc2c([nH]c3c(F)cc(F)cc23)[C@@H]1CCCCCCCC` [Compound C-21], for which the IC50 in the data set with A431 (Table C-3, A431 cells) turned out to be 9.4 µM; with 786-O (Table C-3, 786-O cells), 0.07 µM; in the data set with SJSA-1 (setting [9]), 0.08 µM.

As to `C#CC(=O)N1[C@@H](C)Cc2c([nH]c3ccccc23)[C@]1(C)c1ccc(F)cc1` [Compound C-37], the IC50 in the data set on A431 (Table C-3, A431 cells) was more than 10 µM; in the data set on 786-O (Table C-3, 786-O cells), 0.017 µM; in the data set with SJSA-1 (setting [9]) it was 0.054 µM.

The values above are taken from patent US20220227765A1, “PYRIDO-INDOLE ANALOGUES AS GPX4 INHIBITORS” (Ferro Therapeutics, Inc., priority 2019, published 2022).
